Results as given in patent publication EP1800684A1, “Novel alkyl phospholipid derivatives and uses thereof” (Zentaris GmbH, priority 2005, dated 2007).
≈ marks a conversion by molar mass, not a printed value.

What was measured:
Type in all cases: cell-based
[1] = tested on: Candida albicans (ATCC 90028); experiment: Anti-fungal susceptibility test (microdilution), fungus B; conditions: Candida albicans, ATCC90028, no visible growth after 48 hours at 35° C, read-out: MIC
Description: The antifungal activities of the test compounds (compounds of the invention and known prior art compounds) were measured according to standard microdilution methods (Cryptococcus/Aspergillus: Ghannoum et al., Journal of Clinical Microbiology 1992, 30 (11): 2881-2886; Candida: Reference method for broth dilution susceptibility testing of yeast: proposed standard, NCCLS document M27-P, National Committee for Clinical Laboratory Standards 1992, Villanova, Pa).
A serial dilution series starting from 64 µg/mL test compound per well down to 0.125 µg/mL test compound per well was applied for each test compound on each fungus. The MIC of each compound was defined as the concentration which produces no visible growth after 48 hours (Candida) and 72 hours (Cryptococcus, Aspergillus) of culture at 35° C.
The following fungi were assessed: • A) Candida albicans (ATCC 10231) • B) Candida albicans (ATCC 90028) • C) Candida albicans (strain TS3, Shrikantha et al., Journal of Bacteriology 2000, 182(6):1580-1591) • D) Candida parapsilosis (ATCC 22019) • E) Cryptocoocus neoformans (ATCC 90112) • F) Cryptocoocus neoformans (strain H99; Ganendren et al., Antimicrobial Agents and Chemotherapy, 2004, 48(5):1561-1569) • G) Cryptocoocus gattii (ATCC 32608) • H) Aspergillus fumigatus (ATCC 204305) • I) Aspergillus fumigatus (strain 322-384)

[2] = tested on: PC3 (ATCC CRL1435, human prostate carcinoma); experiment: XTT cytotoxicity assay, PC3 cells; conditions: PC-3, 48 h, 2 days of continuous drug exposure
Description: Human tumor cell lines KB/HeLa (ATCC CCL17, human cervix carcinoma), PC3 (ATCC CRL1435, human prostate carcinoma) and RKOp21 (human colon adenocarcinoma) cells were used in an automated XTT screening assay for the assessment of cytotoxicity.
The XTT assay quantifies cellular metabolic activity which correlates with cell viability and cell number. Test compounds (selected compounds of the invention and known substances as controls) are dissolved in culture medium at 600µM and added to the tumor cells in 10 different concentrations in a semi-logarithmic fashion starting from 100 µM as highest concentration.
48h later cellular metabolic activity of cells treated with test compounds is quantified by measurement of the absorbance at 490nm (conversion of XTT dye) in comparison to untreated control cells (100% viability).
KB/HeLa and PC3 cells were cultivated in RPMI medium supplemented with 10% heat inactivated fetal calf serum, 2 mM glutamine, 100 U/ml penicillin, and 100 µg/ml streptomycin. RKOp21 cells were grown in DMEM supplemented with 10% heat inactivated fetal calf serum, 2 mM glutamine, 100 U/ml penicillin, and 100 µg/ml streptomycin. All cells were cultured at 37°C in 5% CO2 humidified air.
On the first day of the experiment cells were harvested from exponential phase cultures by trypsination, counted and plated into 96 well flat-bottom micro titer plates depending on the cell line as listed below:
After a 24h recovery to allow the cells to resume exponential growth, the test compounds were diluted immediately prior to use and transferred in 25µl volume to the wells.
Following 2 days of continuous drug exposure 50µl of freshly prepared XTT-PMS solution (2% […] PMS in PBS + 98% 1 mg/ml XTT in RPMI 1640 without phenol red) was added to the wells. To measure the proportion of living cells, the cells were incubated for 3 h with XTT-PMS reagent at 37°C, 5% CO2, humidified atmosphere allowing to form the formazan salt. The amount of soluble formazan salt produced by cellular reduction of XTT is quantified by measuring the absorbance at 490nm using the Biomek® 2000 ELISA plate reader.
%-inhibition (cytotoxicity) of each test compound was calculated in relation to untreated control cells. Inhibition curves were generated and IC50 values calculated by using GraphPad Prism.

[3] = tested on: Trypanosoma brucei rhodesiense (strain STIB900); experiment: In vitro drug activity assay, protozoon B (bloodstream form trypomastigotes, Alamar Blue); conditions: incubated for 72 hours
Description: Trypanosoma brucei rhodesiense STIB900 bloodstream form trypomastigotes were maintained in HMI-18 medium (Hirumi H, Hirumi K, J Parasitol. 1989, 75(6):985-989) with 15% heat-inactivated fetal calf serum at 37°C, 5% CO2, humidified atmosphere. Trypomastigotes were washed and resuspended in fresh medium at a concentration of 2 x 10^5 mL. Test compounds were given to the trypomastigotes and plates were incubated for 72 hours at 37°C, 5% CO2, humidified atmosphere. At 72 hours the plates were assessed microscopically before Alamar Blue was added (Raz et al., Acta Trop. 1997, 68: 139-147). Plates were read after 5 to 6 hours at EX/EM 530/585 nm with a filter cutoff at 550 nm. ED50 values were calculated with Msxlfit (IDBS).
(§1) The following protozoa were assessed: • A) Trypanosoma cruzi (Tulahuan-LACZ amstigotes in PEM, Lorente SO et al., Antimicrobial agents and chemotherapy 2004, 48(8): 2937-2950; Buckner et al., Infection and Immunity 1999, 67(1): 403-409; Buckner et al., Antimicrobial Agents and Chemotherapy 1996, 40(11): 2592-2597) • B) Trypanosoma brucei rhodesiense (strain STIB900, Lorente SO et al., Antimicrobial agents and chemotherapy 2004, 48(8): 2937-2950; Habtemariam S, BMC Pharmacology 2003, 3:6) • C) Plasmodium falciparum (strain K1, Korsinczky M et al., Antimicrobial agents and chemotherapy 2000, 44(8): 2100-2108; Thaitong S and Beale GH, Trans. R. Soc. Trop. Med. Hyg. 1981, 75: 271-273; Trager W and Jensen JB, Science 1976, 193: 673-675) • D) Plasmodium falciparum (strain 3D7, Mu et al., PLoS Biology 2005, 3(10): e335)

[4] = tested on: Plasmodium falciparum (strain 3D7); experiment: In vitro drug susceptibility assay, protozoon D (3[H]-hypoxanthine method)
Description: Plasmodium falciparum strain K1 and strain 3D7 parasites were cultured according to Trager W and Jensen JB (Science 1976, 193: 673-675). In vitro drug susceptibility assays with the test compounds were carried out according to Korsinczky M et al. (Antimicrobial agents and chemotherapy 2000, 44(8): 2100-2108) and Fivelman QL et al. (Antimicrobial agents and chemotherapy 2004, 48(11): 4097-4102) using a ^3[H]-hypoxanthine radioisotope method. ED50 values were calculated with Msxlfit (IDBS).
as §1

## CCCCCCCCCCCCCCCCOP(=O)([O-])OCC[N+]1(C)CCCCC1 [Compound 2, Phosphoric acid 2-(1-methyl-piperidin-1-yl)-ethyl ester hexadecyl ester]
[1]
  MIC: 1 µg/mL (≈ 2.23 µM)
[2]
  IC50: 19.6 µM
[3]
  ED50 (µg/mL): 17,50 µg/mL
[4]
  ED50 (µg/mL): 2,21 µg/mL
